In ChEMBL document CHEMBL1201862, “PubChem BioAssay data set” (2004):
The source made the active and inactive calls.

Experiments:
[1] = target: Large T antigen (Simian virus 40, UniProt P03070); assay type: functional, Betapolyomavirus macacae;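 note: Confirmatory-stage PubChem screen for compounds that inhibit SV40 T antigen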
[2] = target: Heat shock protein HSP 90-alpha (Homo sapiens, UniProt P07900); assay type: functional, organism-based
[3] = MC4R antagonists, dose response, counter-screen for LGR2 antagonist project, cell-based, plate reader, cherry pick (AID 743444); assay type: functional;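 note: transfected HEK 293 cells stimulated with alpha-MSH peptide; potency of inhibitors of the alpha-MSH evoked signal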
[4] = HEK293 cell cytotoxicity, dose response, cytotoxicity control, plate reader, cherry-picked samples (AID 743446); assay type: functional, cell-based
[5] = HepG2 cell cytotoxicity, dose response, cytotoxicity control, plate reader, cherry-pick, antagonist series (AID 743416); assay type: functional, cell-based
[6] = A549 cell cytotoxicity, dose response, cytotoxicity control, plate reader, cherry-pick, antagonist series (AID 743412); assay type: functional, cell-based
[7] = target: Genome polyprotein (dengue virus type 2, UniProt P29990); experiment: Dengue-2 NS5 methyltransferase inhibitors, primary screen, biochemical, confirmation dose response (AID 588689); assay type: functional
Genome polyprotein, sequence (P29990 2492-3391 limits assumed): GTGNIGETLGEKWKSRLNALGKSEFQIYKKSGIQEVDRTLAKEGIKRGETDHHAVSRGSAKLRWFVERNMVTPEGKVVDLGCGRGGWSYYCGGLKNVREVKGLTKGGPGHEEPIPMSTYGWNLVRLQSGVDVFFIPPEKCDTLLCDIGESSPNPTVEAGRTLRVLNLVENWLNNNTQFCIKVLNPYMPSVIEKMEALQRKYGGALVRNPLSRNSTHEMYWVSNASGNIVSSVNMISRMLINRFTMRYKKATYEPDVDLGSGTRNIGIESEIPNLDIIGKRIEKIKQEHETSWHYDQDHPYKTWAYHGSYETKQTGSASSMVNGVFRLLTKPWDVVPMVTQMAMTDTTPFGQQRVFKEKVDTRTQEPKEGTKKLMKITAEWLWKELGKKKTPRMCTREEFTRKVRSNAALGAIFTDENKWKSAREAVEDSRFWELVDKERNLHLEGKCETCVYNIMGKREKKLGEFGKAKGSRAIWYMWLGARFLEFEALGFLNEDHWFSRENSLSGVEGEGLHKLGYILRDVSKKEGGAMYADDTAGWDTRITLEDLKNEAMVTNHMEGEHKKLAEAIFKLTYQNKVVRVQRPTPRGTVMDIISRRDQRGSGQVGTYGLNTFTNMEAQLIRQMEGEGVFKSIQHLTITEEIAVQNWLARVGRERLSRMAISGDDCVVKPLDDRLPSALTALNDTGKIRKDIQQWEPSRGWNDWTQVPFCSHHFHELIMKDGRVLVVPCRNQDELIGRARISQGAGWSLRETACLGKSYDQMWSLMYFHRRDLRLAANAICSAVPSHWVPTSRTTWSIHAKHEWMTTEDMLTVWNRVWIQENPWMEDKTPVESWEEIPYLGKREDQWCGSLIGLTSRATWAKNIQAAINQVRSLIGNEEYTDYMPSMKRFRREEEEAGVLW

[8] = target: T1, Protein RecA (Mycobacterium tuberculosis, UniProt P9WHJ3); experiment: Fluorescence Cell-Free Homogeneous Dose Retest to Identify Inhibitors of RecA-Intein Splicing Activity. [Related pubchem assays (depositor defined):AID2097, AID2223, AID489010, AID492950]; assay type: functional
T1 sequence (P9WHJ3 whole entry): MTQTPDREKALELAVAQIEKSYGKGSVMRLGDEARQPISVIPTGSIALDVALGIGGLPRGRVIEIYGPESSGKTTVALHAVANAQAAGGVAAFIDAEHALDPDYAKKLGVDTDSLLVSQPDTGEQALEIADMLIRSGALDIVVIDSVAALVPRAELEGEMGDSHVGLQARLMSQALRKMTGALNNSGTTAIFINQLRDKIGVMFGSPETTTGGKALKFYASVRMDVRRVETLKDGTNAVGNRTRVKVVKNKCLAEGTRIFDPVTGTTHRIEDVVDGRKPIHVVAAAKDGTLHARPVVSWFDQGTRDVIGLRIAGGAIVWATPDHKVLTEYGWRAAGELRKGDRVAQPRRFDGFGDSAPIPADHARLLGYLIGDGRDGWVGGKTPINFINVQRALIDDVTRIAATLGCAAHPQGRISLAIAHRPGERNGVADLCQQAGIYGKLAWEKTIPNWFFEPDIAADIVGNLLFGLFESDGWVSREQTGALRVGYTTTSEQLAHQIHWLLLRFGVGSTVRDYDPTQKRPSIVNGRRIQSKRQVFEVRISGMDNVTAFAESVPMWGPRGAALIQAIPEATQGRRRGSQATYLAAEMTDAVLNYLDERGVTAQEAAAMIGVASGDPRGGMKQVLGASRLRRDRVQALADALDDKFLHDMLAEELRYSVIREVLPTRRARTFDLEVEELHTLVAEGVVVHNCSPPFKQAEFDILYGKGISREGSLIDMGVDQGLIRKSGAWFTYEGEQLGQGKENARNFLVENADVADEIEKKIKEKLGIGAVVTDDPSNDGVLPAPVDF

[9] = target: Glyceraldehyde-3-phosphate dehydrogenase (Homo sapiens, UniProt P04406)
Glyceraldehyde-3-phosphate dehydrogenase, sequence (P04406 whole entry): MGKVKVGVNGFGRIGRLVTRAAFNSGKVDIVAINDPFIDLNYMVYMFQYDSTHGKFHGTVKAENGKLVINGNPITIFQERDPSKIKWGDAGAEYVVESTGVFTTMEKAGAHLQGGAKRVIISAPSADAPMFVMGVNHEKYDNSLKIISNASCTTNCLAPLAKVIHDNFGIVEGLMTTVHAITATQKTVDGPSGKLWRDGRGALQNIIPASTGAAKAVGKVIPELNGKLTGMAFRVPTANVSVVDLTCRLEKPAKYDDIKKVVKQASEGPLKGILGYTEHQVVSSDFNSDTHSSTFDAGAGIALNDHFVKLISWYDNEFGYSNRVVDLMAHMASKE

[10] = target: T2, Replicative DNA helicase DnaB (Mycobacterium tuberculosis, UniProt P9WMR3); experiment: DnaB intein splicing inhibitors, dose response, biochemical, cell-free fluorescence (AID 449749); assay type: functional
T2 sequence (P9WMR3 whole entry): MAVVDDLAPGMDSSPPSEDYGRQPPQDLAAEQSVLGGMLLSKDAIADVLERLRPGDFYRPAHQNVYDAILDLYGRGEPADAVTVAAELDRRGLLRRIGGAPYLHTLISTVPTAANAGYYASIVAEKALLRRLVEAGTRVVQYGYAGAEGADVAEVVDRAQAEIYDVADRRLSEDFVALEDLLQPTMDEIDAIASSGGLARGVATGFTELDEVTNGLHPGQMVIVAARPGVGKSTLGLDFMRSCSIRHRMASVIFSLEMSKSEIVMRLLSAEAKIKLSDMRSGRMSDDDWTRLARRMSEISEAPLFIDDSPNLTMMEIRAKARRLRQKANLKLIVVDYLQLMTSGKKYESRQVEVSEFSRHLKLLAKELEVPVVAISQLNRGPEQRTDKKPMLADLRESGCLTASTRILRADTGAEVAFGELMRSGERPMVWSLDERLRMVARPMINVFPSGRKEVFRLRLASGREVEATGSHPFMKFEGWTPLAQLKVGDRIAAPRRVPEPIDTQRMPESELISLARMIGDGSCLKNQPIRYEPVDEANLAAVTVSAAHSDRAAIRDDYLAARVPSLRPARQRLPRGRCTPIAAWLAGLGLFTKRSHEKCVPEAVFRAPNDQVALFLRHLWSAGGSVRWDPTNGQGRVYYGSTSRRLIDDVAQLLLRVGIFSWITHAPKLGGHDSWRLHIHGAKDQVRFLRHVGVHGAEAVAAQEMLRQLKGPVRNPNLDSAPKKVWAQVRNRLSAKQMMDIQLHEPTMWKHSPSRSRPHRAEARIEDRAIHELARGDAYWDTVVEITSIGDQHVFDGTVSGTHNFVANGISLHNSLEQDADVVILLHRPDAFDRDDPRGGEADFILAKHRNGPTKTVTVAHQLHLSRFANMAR

[11] = cells; assay type: functional, cell-based
[12] = target: T3, Trace amine-associated receptor 1 (Homo sapiens, UniProt Q96RJ0); experiment: Fluorescence-based cell-based high throughput dose response assay to identify agonists of the human trace amine associated receptor 1 (TAAR1).; assay type: functional
T3 sequence (Q96RJ0 whole entry): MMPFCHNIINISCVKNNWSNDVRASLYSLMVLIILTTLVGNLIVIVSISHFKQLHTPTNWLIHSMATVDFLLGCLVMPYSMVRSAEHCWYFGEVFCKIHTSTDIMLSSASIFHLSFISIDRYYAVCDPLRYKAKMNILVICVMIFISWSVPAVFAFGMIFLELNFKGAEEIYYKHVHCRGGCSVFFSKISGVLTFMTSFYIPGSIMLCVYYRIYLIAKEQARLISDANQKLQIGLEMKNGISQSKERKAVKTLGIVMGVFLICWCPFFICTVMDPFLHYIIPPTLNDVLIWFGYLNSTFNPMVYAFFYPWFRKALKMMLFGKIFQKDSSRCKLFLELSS

[13] = cells; assay type: functional, cell-based; remark: listed apart in the source
[14] = inhibitors of intracellular T. cruzi replication, confirmation, NIH3T3 host cells, beta-gal luminescence (AID 2044); assay type: functional, cell-based;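 note: intracellular parasites grown in NIH/3T3 mouse fibroblasts as host cells; luminescent beta-galactosidase reporter signal from transgenic T. cruzi replicating inside host cells; inhibitors lower the luminescence signal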
[15] = microbe, parasite or virus in culture; assay type: functional; conditions: Mycobacterium tuberculosis
[16] = target: T3, Trace amine-associated receptor 1; experiment: Counterscreen for agonists of the human trace amine associated receptor 1 (hTAAR1): Fluorescence-based cell-based high throughput dose response assay to identify hTAAR1 agonist that also desensitize TAAR1 receptor response.; assay type: functional
[17] = cytotoxicity toward NIH3T3 fibroblasts, dose response, counter-screen, cell-based, ATP luminescence, mouse fibroblasts (AID 2010); assay type: functional;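 note: cells exposed to compound for about 90 hours before reading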
[18] = target: T4, Oxysterols receptor LXR-beta (Homo sapiens, UniProt P55055); assay type: functional, cell-based;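 note: agonist activity at LXR measured by a cell-based luminescence readout across a dose range, run as a counterscreen for daf-12 agonists; HEK293 cells with Gal4-LXR fusion and GAL4-driven luciferase reporter; potency for activation of Gal4-LXR reporter so compounds are agonists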
T4 sequence (P55055 whole entry): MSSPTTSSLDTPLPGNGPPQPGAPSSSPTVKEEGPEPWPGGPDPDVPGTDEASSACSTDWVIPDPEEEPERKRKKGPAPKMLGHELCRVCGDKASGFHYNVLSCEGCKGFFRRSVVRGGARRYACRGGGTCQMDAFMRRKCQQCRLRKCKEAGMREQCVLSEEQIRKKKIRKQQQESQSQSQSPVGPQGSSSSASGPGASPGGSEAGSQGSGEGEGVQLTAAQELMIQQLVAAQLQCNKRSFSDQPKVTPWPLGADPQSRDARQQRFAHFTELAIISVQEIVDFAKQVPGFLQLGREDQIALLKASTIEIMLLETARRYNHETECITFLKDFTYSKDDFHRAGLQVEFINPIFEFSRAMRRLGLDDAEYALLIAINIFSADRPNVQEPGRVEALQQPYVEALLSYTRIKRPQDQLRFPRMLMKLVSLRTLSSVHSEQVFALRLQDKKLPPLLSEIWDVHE

[19] = target: T5, Caspase-6 (Homo sapiens, UniProt P55212); experiment: human caspase-6 inhibitors, dose response, biochemical, VEID-R110 fluorescence, cherry-pick (AID 720632)
T5 sequence (P55212 whole entry): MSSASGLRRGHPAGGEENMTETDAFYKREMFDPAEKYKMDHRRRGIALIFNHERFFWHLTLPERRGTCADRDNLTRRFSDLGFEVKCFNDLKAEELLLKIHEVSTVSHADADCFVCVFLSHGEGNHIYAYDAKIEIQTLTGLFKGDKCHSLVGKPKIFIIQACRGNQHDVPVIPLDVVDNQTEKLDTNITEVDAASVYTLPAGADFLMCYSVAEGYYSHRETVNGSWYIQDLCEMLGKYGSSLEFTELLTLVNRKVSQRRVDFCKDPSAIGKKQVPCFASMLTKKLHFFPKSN

[20] = cytotoxicity in HEK-293T cells, dose response, cytotoxicity control for TCR NF-kB inhibitor project, luminescence, T-cell screen hits (AID 489026); assay type: functional, cell-based;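 note: cells exposed to compound about 14 hours before the viability readout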
[21] = LGR2 antagonists, dose response, cell-based, HEK293, CRE-luciferase reporter, cherry pick, set 2 (AID 743343); assay type: functional;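 note: transfected cells were stimulated with diluted bursicon conditioned medium after compound addition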
[22] = control 3'UTR Renilla luciferase suppression, dose response, counter-screen for Shn3 inhibitor project, cell-based, Clone20-Shn3RL, cherry-picked (AID 624133); assay type: functional
[23] = HepG2 cell cytotoxicity, dose response, cytotoxicity control for Shn3 inhibitor project, CellTiter-Glo, cherry-picked (AID 624134); assay type: functional, cell-based
[24] = Shn3 3'UTR reporter inhibitors, dose response, cell-based, Clone20 osteoblasts, firefly luciferase, cherry-picked (AID 624132); assay type: functional;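 note: firefly luciferase luminescence from reporter carrying the Shn3 3'UTR in osteoblasts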

Large T antigen, sequence (P03070 whole entry): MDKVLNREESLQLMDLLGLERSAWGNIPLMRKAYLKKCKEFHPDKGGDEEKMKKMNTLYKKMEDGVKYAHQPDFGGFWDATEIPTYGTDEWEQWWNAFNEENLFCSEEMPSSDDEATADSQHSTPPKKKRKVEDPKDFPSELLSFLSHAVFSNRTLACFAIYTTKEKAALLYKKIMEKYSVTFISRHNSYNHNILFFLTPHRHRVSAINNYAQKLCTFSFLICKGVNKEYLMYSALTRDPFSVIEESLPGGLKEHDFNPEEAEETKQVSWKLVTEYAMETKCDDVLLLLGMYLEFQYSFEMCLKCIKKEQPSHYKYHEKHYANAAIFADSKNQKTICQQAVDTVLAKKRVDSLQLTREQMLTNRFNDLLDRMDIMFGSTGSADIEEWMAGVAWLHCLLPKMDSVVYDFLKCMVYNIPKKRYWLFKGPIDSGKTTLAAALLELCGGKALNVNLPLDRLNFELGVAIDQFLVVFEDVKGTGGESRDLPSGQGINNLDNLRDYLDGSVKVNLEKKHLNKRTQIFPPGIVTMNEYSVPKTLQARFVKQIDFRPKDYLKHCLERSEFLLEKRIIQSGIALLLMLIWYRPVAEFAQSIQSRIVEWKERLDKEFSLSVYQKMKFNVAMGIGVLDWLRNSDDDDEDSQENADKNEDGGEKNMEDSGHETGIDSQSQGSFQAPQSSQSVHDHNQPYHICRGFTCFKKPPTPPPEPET

CC[C@H](C)/C=C/C1=CC2=C(Cl)C(=O)[C@@]3(C)OC(=O)C(C(=O)[C@H](C)[C@@H](C)O)=C3C2=CO1
IC50 [1]: 44 µM (active)
AC50 [2]: 7.41 µM (active)

CC1CCN(C(=O)c2ccc(S(=O)(=O)Cc3cc(F)ccc3F)c([N+](=O)[O-])c2)CC1
AC50 [3]: 53.6 µM (active)
AC50 [4]: 31.7 µM (active)
AC50 [5]: > 52 µM (inactive)
AC50 [6]: 25.4 µM (active)

O=C1CC(N2CCC(c3nc4ccccc4o3)CC2)C(=O)N1c1ccc(Cl)c(C(F)(F)F)c1 (centres undefined)
AC50 [2]: 2.08 µM (active)

Cc1cccc(N2C(=O)C(Cl)=C(N3CCOCC3)C2=O)c1
IC50 [7]: 34.5 µM (active)
EC50 [8]: 1.9 µM (active)
IC50 [9]: > 50 µM (inconclusive)
AC50 [10]: 6.69 µM (active)

OC(COC(c1ccc(Cl)cc1)c1ccc(Cl)cc1)CN1CCc2ccccc2C1 (centres undefined)
EC50 [11]: > 29.9 µM (inactive)
EC50 [12]: 2.13 µM (active)
IC50 [13]: 12.1 µM (inactive)
EC50 [14]: 2.16 µM (active)
CC50 [15]: 34.7 µM (active)
IC50 [16]: 9.26 µM (active)
EC50 [8]: 81.5 µM (active)
EC50 [17]: > 60 µM (inconclusive)
AC50 [10]: 2.26 µM (active)

Cc1cnc(NC(=O)COc2ccc3c(c2)CCC3)s1
EC50 [18]: > 67.6 µM (inactive)

O=C(O)C1C2CCC(C2)C1C(=O)NCCC1=CCCCC1 (centres undefined)
EC50 [11]: > 29.9 µM (inactive)
EC50 [12]: 6.32 µM (active)
IC50 [13]: > 29.9 µM (inactive)
IC50 [16]: > 29.9 µM (inactive)

COc1cccc(NC(=N)N)c1
EC50 [11]: > 29.9 µM (inactive)
EC50 [12]: 1.87 µM (active)
IC50 [13]: > 29.9 µM (inactive)
IC50 [16]: 5.04 µM (active)

CCN1C(=O)/C(=C/Nc2ccccc2)SC1=S
EC50 [18]: > 67.5 µM (inactive)

C/C(=C\C(=O)c1sccc1Cl)N(C)C
EC50 [18]: > 67.6 µM (inactive)

Nc1c2c(nc3sc4c(c13)CCCC4)CCCCC2
EC50 [18]: > 67.6 µM (inactive)

O=C(COC(=O)Cc1ccccc1)Nc1cc(S(=O)(=O)N2CCCCC2)ccc1Cl
AC50 [19]: 38.3 µM (active)

CC1(C)Cc2nc3sc4c(=O)n(CC(=O)NCc5ccccc5)cnc4c3cc2CO1
IC50 [20]: > 80 µM (inactive)

O=[N+]([O-])/C=C/c1c(Cl)cccc1Cl
AC50 [2]: 1.12 µM (active)

Nc1cc2cccnc2cc1Cl
AC50 [19]: 25.6 µM (active)

Cc1cccc(C)c1-n1nnnc1C(c1cc2ccccc2o1)N1CCC(n2c(O)nc3ccccc32)CC1 (centres undefined)
AC50 [21]: 3.43 µM (active)
AC50 [22]: 4.09 µM (active)
AC50 [23]: 2.97 µM (active)
AC50 [3]: 3.33 µM (active)
AC50 [4]: 4.96 µM (active)
AC50 [5]: 1.98 µM (active)
AC50 [6]: 6.22 µM (active)
AC50 [24]: 3.05 µM (active)

COc1ccc(-c2nn(-c3ccccc3)cc2C(=O)N2CCN(S(=O)(=O)c3ccccc3[N+](=O)[O-])CC2)cc1
AC50 [2]: 3.97 µM (active)

COc1cccc(C)c1NC1=NCCO1
EC50 [11]: > 29.9 µM (inactive)
EC50 [12]: 0.734 µM (active)
IC50 [13]: > 29.9 µM (inactive)
IC50 [16]: 4.12 µM (active)

CCSCC(C)(C)n1[nH]c2ccccc2c1=O
EC50 [18]: > 67.6 µM (inactive)

COc1ccccc1NC(=O)N1CCCCN2[C@@H](CO)[C@H](c3ccc(-c4cccc(F)c4)cc3)[C@@H]2C1
AC50 [21]: 64.7 µM (active)
AC50 [3]: 52.2 µM (active)
AC50 [4]: > 52 µM (inactive)
AC50 [5]: 19 µM (active)
AC50 [6]: 18.6 µM (active)

O=C(CNC(=O)c1ccccc1F)N/N=C\C=C\c1ccccc1
EC50 [11]: > 29.9 µM (inactive)
EC50 [12]: > 29.9 µM (inactive)
IC50 [13]: > 29.9 µM (inactive)
IC50 [16]: 9.57 µM (active)
